Data on four molecules can be found in patent US10016427B2, “Hydrochloride salt of((1S,2S,4R)-4-{4-[(1S)-2,3-dihydro-1H-inden-1-ylamino]-7H-pyrrolo[2,3-D]pyrimidin-7-YL}-2-hydroxycyclopentyl) methyl sulfamate” (Millennium Pharmaceuticals, Inc., priority 2009, dated 2018).

The nature of data set [1]: Solubility of Form 1 in water. The format is physicochemical. The text has this:
The resulting solution has a pH of about 2.33.

Data set [2] is described as follows: Solid state storage stability (Peak Area % measured by HPLC). The format is physicochemical. The following applies: for stability on storage: compared with the potassium salt; for Peak Area % 6 weeks / Peak Area % Initial / Peak Area % 15 days: solid state; for Peak Area % Initial: -20° C. freezer. The text has this:
The following table summarizes stability data obtained (Peak Area % measured by HPLC) for solid state ((1S,2S,4R)-4-{4-[(1S)-2,3-dihydro-1H-inden-1-ylamino]-7H-pyrrolo[2,3-d]pyrimidin-7-yl}-2-hydroxycyclopentyl)methyl sulfamate.

Counter-ions that a name gives are not always drawn.

Turning to `NS(=O)(=O)OC[C@@H]1C[C@@H](n2ccc3c(N[C@H]4CCc5ccccc54)ncnc32)C[C@@H]1O` [HCl Salt Form 1, ((1S,2S,4R)-4-{4-[(1S)-2,3-dihydro-1H-inden-1-ylamino]-7H-pyrrolo[2,3-d]pyrimidin-7-yl}-2-hydroxycyclopentyl)methyl sulfamate hydrochloride Form 1], the solubility (commonly the dissolved amount per volume that the medium holds) in data set [1] (pH 2.33, thermodynamic from solid, in water) is around 7800 µg/mL. For the same molecule, the “pH of the resulting solution” value in data set [1] (solution resulting from dissolution in water) is on record as “about 2.33”. Also, the stability on storage entry in data set [2] is given as “increased stability on storage”. For the same molecule, the entries for the “Peak Area % 6 weeks” value in data set [2] (5° C. refrigerator), in data set [2] (40° C./75% RH) and in data set [2] (60° C./75% RH) were 99.3%, 98.7% and 91.3%, respectively. Moreover, in data set [2], the “Peak Area % Initial” value stood at 99.2%.

As for `NS(=O)(=O)OC[C@@H]1C[C@@H](n2ccc3c(N[C@H]4CCc5ccccc54)ncnc32)C[C@@H]1O` [HCl Salt Form 2, ((1S,2S,4R)-4-{4-[(1S)-2,3-dihydro-1H-inden-1-ylamino]-7H-pyrrolo[2,3-d]pyrimidin-7-yl}-2-hydroxycyclopentyl)methyl sulfamate hydrochloride Form 2], the stability on storage entry in data set [2] is listed as “increased stability on storage”. In addition, the “Peak Area % 15 days” value in data set [2] (5° C. refrigerator) is 98.2%; in data set [2] (40° C./75% RH), 97.8%; in data set [2] (60° C./75% RH) it was 88.6%. Besides, the “Peak Area % Initial” value in data set [2] is on record as 98.3%.

On to `NS(=O)(=O)OC[C@@H]1C[C@@H](n2ccc3c(N[C@H]4CCc5ccccc54)ncnc32)C[C@@H]1O` [free base (amorphous), ((1S,2S,4R)-4-{4-[(1S)-2,3-dihydro-1H-inden-1-ylamino]-7H-pyrrolo[2,3-d]pyrimidin-7-yl}-2-hydroxycyclopentyl)methyl sulfamate, reference compound], for which the “Peak Area % 15 days” value in data set [2] (5° C. refrigerator) was determined as 96.4%; in data set [2] (40° C./75% RH), 94.5%; in data set [2] (60° C./75% RH), 93.2%. For the same molecule, the “Peak Area % Initial” value in data set [2] is recorded as 96.0%.

`NS(=O)(=O)OC[C@@H]1C[C@@H](n2ccc3c(N[C@H]4CCc5ccccc54)ncnc32)C[C@@H]1O.[K]` [potassium salt (amorphous), potassium salt of ((1S,2S,4R)-4-{4-[(1S)-2,3-dihydro-1H-inden-1-ylamino]-7H-pyrrolo[2,3-d]pyrimidin-7-yl}-2-hydroxycyclopentyl)methyl sulfamate, reference compound]: the entries for the “Peak Area % 15 days” value in data set [2] (5° C. refrigerator), in data set [2] (40° C./75% RH) and in data set [2] (60° C./75% RH) were 97.6%, 88.7% and 38.3%, respectively. Further, in data set [2], the “Peak Area % Initial” value is 96.9%.
